Data reported in patent US7592308B2, “F3W variants of the lantibiotic mersacidin and its use” (priority 2004, dated 2009).
Entries after “also recorded” stand apart in the source; their conditions may differ. Square brackets hold non-standard residues; d marks the D form. Ends that are not written are not given here. Dhb = C/C=C(\N)C(=O)O; Dha = C=C(N)C(=O)O

Assays:
[1] = test system: E. faecalis 29212; test: MIC, two-fold serial dilution in broth; type: cell-based, Enterococcus faecalis; details: duplicate
Experimental: (§1) A selection of the variants produced in Example 1 above were tested further for activity against a range of bacteria. Minimum inhibitory concentrations (MICs) for all organisms with the exception of Streptococcus pneumoniae were determined by two-fold serial antibiotic dilutions in Mueller-Hinton broth (MHB) supplemented with 50 μg/ml calcium as calcium chloride dihydrate. Minimum inhibitory concentrations (MICs) for S. pneumoniae were determined by two-fold serial antibiotic dilutions in Brain Heart Infusion (BHI) broth supplemented with 50 μg/ml calcium as calcium chloride dihydrate. Antimicrobial agent stock solutions were prepared and stored according to NCCLS standard M7-A6.
(§2) Actively growing broth cultures were diluted to contain […] by adjusting to an absorbance of 0.2-0.3 at 600 nm, equivalent to the McFarland 0.5 standard. They were then diluted a further 1:100 in broth. The assays were performed in duplicate in sterile 96-well microtitre plates in a total volume of 200 μl (160 μl broth, 20 μl antibiotic, 20 μl inoculum) in a concentration range from 64 μg/ml to 0.06 μg/ml. The 12th well of the microtitre plate contained no antimicrobial agent. Vancomycin was used as a reference antibiotic for quality control. Plates were incubated aerobically, shaking, for 18-20 hours at 37° C. with the MIC defined as the lowest concentration of drug that produced no visible growth.

[2] = test system: M. luteus 4698; type: cell-based, Micrococcus luteus; details: Table 8B; MHB + 50 μg/ml calcium; duplicate
Experimental: as §1, §2

[3] = test system: E. faecium 19579; test: MIC, two-fold serial dilution in broth; type: cell-based, Enterococcus faecium; details: Table 8A; MHB + 50 μg/ml calcium; duplicate
Experimental: as §1, §2

[4] = test system: E. faecium 7131121; test: MIC, two-fold serial dilution in broth; type: cell-based, Enterococcus faecium; details: duplicate
Experimental: as §1, §2

[5] = test system: S. aureus SH1000; type: cell-based, Staphylococcus aureus; details: Table 8A; MHB + 50 μg/ml calcium; duplicate
Experimental: as §1, §2

[6] = test system: S. pneumoniae R6; type: cell-based, Streptococcus pneumoniae; details: Table 8B; BHI broth + 50 μg/ml calcium; duplicate
Experimental: as §1, §2

[7] = test system: S. aureus COL; type: cell-based, Staphylococcus aureus; details: Table 10; duplicate
Experimental: (§3) MIC tests were performed with some of the variants of Example 2 on a range of other organisms. The results are shown in Tables 9 and 10 (figures in μg/ml): […]

[8] = test system: S. aureus LT 1012-13; test: MIC test, further organisms; type: cell-based, Staphylococcus aureus; details: Table 10; duplicate
Experimental: as §3

[9] = test system: S. aureus Mu50; test: MIC test, further organisms; type: cell-based, Staphylococcus aureus; details: Table 10; duplicate
Experimental: as §3

[10] = test system: E. faecium BM4147; test: MIC test, further organisms; type: cell-based, Enterococcus faecium; details: Table 10; duplicate
Experimental: as §3

[11] = test system: M. luteus; details: data of Szekat et al., cited from earlier work; for fold greater MIC measured against M. luteus: compared with mersacidin
[12] = Table 8A, MHB + 50 μg/ml calcium

G7N: mersacidin variant (CTFTLPNGGGVCTLT[Dha]ECIC; thioether (positions not given here); not fully specified; UniProt P43683 49-68, looked up, variant G7N)
MIC E. faecalis 29212 [1, 12]: >64, >64 μg/ml
MIC M. luteus 4698 [2]: <4, <4 μg/ml

G8Q: mersacidin variant (CTFTLPGQGGVCTLT[Dha]ECIC; thioether (positions not given here); not fully specified; UniProt P43683 49-68, looked up, variant G8Q)
MIC E. faecium 19579 [3]: >64, >64 μg/ml
MIC E. faecium 7131121 [4, 12]: >64, >64 μg/ml
MIC E. faecalis 29212 [1, 12]: >64, >64 μg/ml
MIC S. aureus SH1000 [5]: >64, >64 μg/ml

G10Y: mersacidin variant (CTFTLPGGGYVCTLT[Dha]ECIC; thioether (positions not given here); not fully specified; UniProt P43683 49-68, looked up, variant G10Y)
MIC S. aureus SH1000 [5]: >64, >64 μg/ml
MIC M. luteus 4698 [2]: <4, <4 μg/ml
MIC S. pneumoniae R6 [6]: <4, <4 μg/ml

P6N: mersacidin variant (CTFTLNGGGGVCTLT[Dha]ECIC; thioether (positions not given here); not fully specified; UniProt P43683 49-68, looked up, variant P6N)
MIC S. aureus COL [7]: >32, >32 μg/ml
MIC S. aureus LT 1012-13 [8]: >32, >32 μg/ml
MIC S. aureus Mu50 [9]: >32, >32 μg/ml
MIC E. faecium BM4147 [10]: >32, >32 μg/ml

S16I: mersacidin variant produced by Szekat et al. (CTFTLPGGGGVCTLTIECIC; thioether (positions not given here); not fully specified; UniProt P43683 49-68, looked up, variant S16I)
antibacterial activity (in words) [11]: essentially inactive
fold greater MIC measured against M. luteus [11]: about 1,000 fold

mersacidin E17A (CTFTLPGGGGVCTLT[Dha]ACIC; thioether (positions not given here); not fully specified; UniProt P43683 49-68, looked up, variant E17A) [mersacidin variant produced by Szekat et al]
antibacterial activity (in words) [11]: essentially inactive; also recorded: no antibacterial activity
fold greater MIC measured against M. luteus [11]: about 1,000 fold

mersacidin L14I Dha16Dhb (CTFTLPGGGGVCTIT[Dhb]ECIC; thioether (positions not given here); not fully specified; UniProt P43683 49-68, looked up, variant L14I S16T) [mersacidin double variant]
MIC E. faecium 7131121 ([4]; Table 18, double variants): >64, >64 μg/ml
MIC E. faecalis 29212 ([1]; Table 18, double variants): >64, >64 μg/ml
